Measured values from PMC11175440, “Exploring hydrophilic 2,2-di(indol-3-yl)ethanamine derivatives against Leishmania infantum” (PLOS ONE, 2024).
Entries after “also recorded” stand apart in the source; their conditions may differ.

What was measured:
[1] = system: L. infantum MHOM/TN/80/IPT1 promastigotes; assay: L. infantum promastigotes viability assay; format: cell-based; details: 72 h; for IC50: scalar dilutions from 20 to 0.31 μM, mean and 95% CI; for inhibition at 20 µM: single dose 20 μM, 26°C
Description: The reference strain L. infantum MHOM/TN/80/IPT1 (WHO international reference strain) was purchased from ATCC (ATCC® 50134™) and cultured in Evans’s Modified Tobie Medium (EMTM) at 26–28°C. During the treatment with bisindole derivative compounds, the parasites were maintained in RPMI-PY medium as described previously
The activity of bisindole derivatives was first evaluated on late log/stationary phase L. infantum promastigotes resuspended in 96-well plates (100 μL/well) in complete RPMI-PY medium with a density of 2.5×10^6 parasites/mL. The anti-parasitic activity was initially investigated with the single dose of 20 μM of each compound for 72 h at 26°C. […] As positive control, the anti-leishmanial drug miltefosine (Sigma-Aldrich, Milan, Italy) was included. Each condition was carried out in duplicate. The promastigotes viability was evaluated using the CellTiter 96H aqueous non-radioactive cell proliferation assay (Promega, Madison, Wisconsin, USA), as previously reported. The efficacy of selected compounds was evaluated by determining the IC50 values using the non-linear regression curves in GraphPad Prism 8.0 (GraphPad Software, Inc., San Diego, CA, USA). The equation used for data fitting was Y = 100/(1+10^((LogIC50-X)*HillSlope)) (hillslope not constrained), where X is equal to the log of concentration and Y is the normalized response.

THP-1 cells = assay: Cytotoxicity assay on PMA-differentiated THP-1 macrophage-like cells; format: cell-based, human; details: CC50 in THP-1 / IC50 against L. infantum promastigotes
Description: (§1) The human monocytic cell line THP-1 (ECACC 88081201) was cultured in RPMI-1640 medium supplemented with 10% heat-inactivated fetal bovine serum (FBS), 2 mM L-glutamine, 10 g/L non-essential amino acid, 1 mM sodium pyruvate, 100 μg/mL streptomycin, […]. Cells were maintained in a humidified incubator at 37°C and 5% CO2. All cell culture reagents were purchased from Sigma-Aldrich (St. Louis, MO, USA).
(§2) The cytotoxicity of bisindole derivative compounds was evaluated on THP-1 cells. Briefly, cells were resuspended at a density of 5×10^6 cells/mL, 100 μL/well were seeded in a 96-well plate and treated for 48 h with 20 ng/mL phorbol myristic acid (PMA) to induce differentiation into macrophages-like cells. After cell adhesion, selected compounds were used at 4, 20, and 100 μM, for 72 h at 37°C. […] Compounds with cytotoxicity higher than 20 μM were further tested to determine CC50 with scalar dilutions 1:2 or 2:3 (from 100 to 3.12 μM).
(§3) The negative control (not-treated cells) and the anti-leishmanial drug miltefosine were included in each experiment. Each condition was carried out in duplicate. To evaluate the cytotoxicity of the selected compounds, the CellTiter 96H Aqueous Non-Radioactive Cell Proliferation Assay (Promega) was performed as described above. For each compound, the SI was calculated as the ratio between cytotoxicity in THP-1 and activity against L. infantum promastigotes.

[2] = as above; format: cell-based, human; details: human, PMA-differentiated THP-1 macrophage-like cells; 72 h, scalar dilutions from 100 to 3.12 μM; mean and 95% CI
Description: as §1, §2, §3

infected THP-1 cells = assay: Cytotoxic effect on infected THP-1 cells (cell count, Hoechst staining); format: cell-based, human; details: 72 h, 1.25-20 μM
Description: THP-1 cells were plated in a 96-well plate and differentiated as described above. After differentiation, cells were infected with a parasite-to-cell ratio of 10:1 for 24 h with L. infantum MHOM/TN/80/IPT1 promastigotes previously stained with carboxyfluorescein succinimidyl ester (CFSE) dye (Invitrogen, Waltham, Massachusetts, USA) following manufacturer’s instructions. Briefly, Leishmania cells were washed twice with PBS to remove any trace of serum and resuspended 1×10^7/mL PBS. CFSE was then added at 5 μM final concentration, and promastigotes were incubated for 15 min at 37°C in the dark. The labeling was stopped by adding 4 volumes of cold complete media containing 10% serum and incubating in ice for 5 min. Labeled parasites were washed three times with complete RPMI medium and used for the infection. […] To analyze the infection, cells were washed, formaldehyde/methanol fixed, stained with Hoechst dye, and observed with a fluorescence microscope. Images were acquired (at 5× magnification) at 494 nm excitation/521 nm emission (green) and 350 nm excitation/460 emission (blue) for CFSE and Hoechst staining, respectively. Automated cell counting of single-color images was performed with ImageJ software to monitor the infection: the promastigotes count on each green image was normalized with the cell count on the corresponding blue image. The normalized value of infected non-treated cells was taken as 100%. To calculate IC50, the percentage values of Leishmania cell count normalized to THP-1 cells were plotted against the log10 concentration (μM) of each compound.
(B) The effect of treatment was monitored by counting the number of cells. Data are represented as mean ± SD. Two-way ANOVA; Dunnett’s multiple comparisons test; *adjusted p < 0.05, **adjusted p < 0.01.

[3] = system: L. infantum intracellular amastigotes; assay: Anti-amastigote assay on infected THP-1 cells; format: cell-based; details: Leishmania infantum; THP-1 cells infected 24 h, 72 h treatment, 20 to 0.31 μM; read-out: IC50 against L. infantum intracellular amastigotes
Description: THP-1 cells were plated in a 96-well plate and differentiated as described above. […] Briefly, Leishmania cells were washed twice with PBS to remove any trace of serum and resuspended 1×10^7/mL PBS. […] Labeled parasites were washed three times with complete RPMI medium and used for the infection. […] To analyze the infection, cells were washed, formaldehyde/methanol fixed, stained with Hoechst dye, and observed with a fluorescence microscope. Images were acquired (at 5× magnification) at 494 nm excitation/521 nm emission (green) and 350 nm excitation/460 emission (blue) for CFSE and Hoechst staining, respectively. Automated cell counting of single-color images was performed with ImageJ software to monitor the infection: the promastigotes count on each green image was normalized with the cell count on the corresponding blue image. […] To calculate IC50, the percentage values of Leishmania cell count normalized to THP-1 cells were plotted against the log10 concentration (μM) of each compound.

[4] = system: L. infantum (MHOM/MA/67/ITMAP-263) axenic amastigotes; assay: In vivo anti-amastigote activity in BALB/c mice infection model (limiting dilution parasite burden); details: all the organs (spleen, liver, bone marrow); miltefosine 10 mg/kg/day per os, 10 days
Description: (§4) The compound URB1483 was selected for the in vivo evaluation on a BALB/c mice infection model. Six- to seven-week-old BALB/c mice were purchased from Charles River Laboratories (Barcelona, Spain) or the I3S (Porto, Portugal) animal facility. Luciferase-expressing L. infantum (MHOM/MA/67/ITMAP-263) axenic amastigotes were cultured in complete cell-free medium MAA/20 [20] at 37°C with 5% CO2. Five-day-old cultures of amastigotes were washed twice with PBS and resuspended at a concentration of 1×10^9 parasites/Ml. A total of 17 mice were infected with 100 μL of parasite suspension containing 1×10^8 parasites. The injection was performed intra-venously (IV) in the tails of mice, and treatments started 21 days post-infection for 10 consecutive days. Formulation studies are reported in the Supporting Information (S1 Table in S1 File). […]
(§5) Mice well-being-assessment was checked every two days, in terms of weight control and the presence of stress signs. […] Spleen and liver were weighted, and bone marrow cells were counted with automatic cell counter EVE^TM (NanoEnTek, Seul, Korea). […] For bone marrow, the number of parasites was calculated per 10^5 cells using the formula: [(geometric mean of reciprocal titer from each triplicate/number of cells) × reciprocal fraction of the cells inoculated into the first well]. […]

[5] = Well-being, body weight and organ weight of infected and treated BALB/c mice; format: in vivo; details: miltefosine 10 mg/kg/day per os
Description: as §4, §5

| IC50 ([1]; Leishmania infantum) [µM] | SMILES | inhibition at 20 µM ([1]; Leishmania infantum) [%] | SI (CC50/IC50) (THP-1 cells) | CC50 at 72 h [2] [µM] | other results |
| --- | --- | --- | --- | --- | --- |
| > 10 | NCC(c1c[nH]c2ccccc12)c1c[nH]c2ccccc12 [1a] | 82.3 | – | – | IC50 [1]: 12.9 µM |
| 8.6 | NCC(c1c[nH]c2cc(F)ccc12)c1c[nH]c2cc(F)ccc12 [1b] | 89.1 | 4.7 | 40.4 | – |
| 7.4 | NCC(c1c[nH]c2cc(Cl)ccc12)c1c[nH]c2cc(Cl)ccc12 [1c] | 95.6 | 5.3 | 39.4 | – |
| – | NCC(c1c[nH]c2cc(Br)ccc12)c1c[nH]c2cc(Br)ccc12 [1d, 2,2-bis(6-bromo-1H-indol-3-yl)ethanamine] | 96.8 | – | – | – |
| – | NCC(c1c[nH]c2ccc(I)cc12)c1c[nH]c2ccc(I)cc12 [1e] | 97.8 | – | – | – |
| 8.2 | COC(=O)c1ccc2c(C(CN)c3c[nH]c4cc(C(=O)OC)ccc34)c[nH]c2c1 [1f] | 89.7 | 4.9 | 40.1 | – |
| – | N#Cc1ccc2[nH]cc(C(CN)c3c[nH]c4ccc(C#N)cc34)c2c1 [1g] | -1.6 | – | – | – |
| 4.1 | Cn1cc(C(CN)c2cn(C)c3ccccc23)c2ccccc21 [1h] | 98 | 10.1 | 41.6 | cytotoxicity in the infection model (infected THP-1 cells): better toxicity profile than the commercial drug miltefosine; also recorded: better toxicity profile compared to the commercial drug miltefosine; IC50 [3]: 11.1 µM |
| – | Cn1cc(C(CN)c2cn(C)c3cc(Br)ccc23)c2ccc(Br)cc21 [1i] | 98 | – | – | – |
| – | CC(C)CNCC(c1c[nH]c2cc(Br)ccc12)c1c[nH]c2cc(Br)ccc12 [2a] | 97.8 | – | – | – |
| – | Fc1ccc(CNCC(c2c[nH]c3cc(Br)ccc23)c2c[nH]c3cc(Br)ccc23)cc1 [2b] | 98.2 | – | – | – |
| 2.7 | Clc1ccc(CNCC(c2c[nH]c3cc(Br)ccc23)c2c[nH]c3cc(Br)ccc23)cc1 [2c] | 98.1 | 4.3 | 11.7 | cytotoxicity in the infection model (infected THP-1 cells): high cellular toxicity; IC50 [3]: 6.8 µM |
| 3.9 | O=[N+]([O-])c1ccc(CNCC(c2c[nH]c3cc(Br)ccc23)c2c[nH]c3cc(Br)ccc23)cc1 [2d] | 95 | 3.4 | 13.2 | – |
| – | Cc1ccc(CNCC(c2c[nH]c3cc(Br)ccc23)c2c[nH]c3cc(Br)ccc23)cc1 [2e] | 95.8 | – | – | – |
| – | Brc1ccc2c(C(CNCc3ccco3)c3c[nH]c4cc(Br)ccc34)c[nH]c2c1 [2f] | 95.2 | – | – | – |
| – | Brc1ccc2c(C(CNCc3cccs3)c3c[nH]c4cc(Br)ccc34)c[nH]c2c1 [2g] | 95.5 | – | – | – |
| – | CC(C)C(=O)NCC(c1c[nH]c2cc(Br)ccc12)c1c[nH]c2cc(Br)ccc12 [3a] | 96.7 | – | – | – |
| 9.5 | O=C(NCC(c1c[nH]c2cc(Br)ccc12)c1c[nH]c2cc(Br)ccc12)c1ccc(F)cc1 [3b] | 97.7 | 2.3 | 21.9 | – |
| – | O=C(NCC(c1c[nH]c2cc(Br)ccc12)c1c[nH]c2cc(Br)ccc12)c1ccc(Cl)cc1 [3c] | 97.4 | – | – | – |
| – | O=C(NCC(c1c[nH]c2cc(Br)ccc12)c1c[nH]c2cc(Br)ccc12)c1ccc([N+](=O)[O-])cc1 [3d] | 90.4 | – | – | – |
| > 10 | COc1ccc(C(=O)NCC(c2c[nH]c3cc(Br)ccc23)c2c[nH]c3cc(Br)ccc23)cc1 [3e] | 95.2 | – | – | IC50 [1]: 12.2 µM |
| – | O=C(NCC(c1c[nH]c2cc(Br)ccc12)c1c[nH]c2cc(Br)ccc12)c1ccco1 [3f] | 97.2 | – | – | – |
| – | O=C(NCC(c1c[nH]c2cc(Br)ccc12)c1c[nH]c2cc(Br)ccc12)c1cccs1 [3g] | 96.9 | – | – | – |
| 9.8 | Cc1ccc(S(=O)(=O)NCC(c2c[nH]c3cc(Br)ccc23)c2c[nH]c3cc(Br)ccc23)cc1 [4a] | 96.9 | 2.1 | 20.2 | – |
| – | Cc1ccc(S(=O)(=O)NCC(c2cn(C)c3ccccc23)c2cn(C)c3ccccc23)cc1 [4b] | 45.7 | – | – | – |
| – | O=S(=O)(NCC(c1c[nH]c2cc(Br)ccc12)c1c[nH]c2cc(Br)ccc12)c1cccs1 [4c] | 97.6 | – | – | – |

| SMILES | IC50 ([1]; Leishmania infantum) [µM] | inhibition at 20 µM ([1]; Leishmania infantum) [%] | SI (CC50/IC50) (THP-1 cells) | CC50 at 72 h [2] [µM] | other results |
| --- | --- | --- | --- | --- | --- |
| CCCCCCCCCCCCCCCCOP(=O)([O-])OCC[N+](C)(C)C [miltefosine, reference compound] | 3.6 | 96.7 | 10.2 | 36.7 | reduction of parasite burden [4]: more than 99.9%; spleen weight ([5]; after 10 days of treatment, versus non-treated infected group): significantly lower to the non-treated group; weight decrease ([5]; infected BALB/c mice, from the second treatment): 10%; IC50 [3]: 1.8 µM |
